Marks after values point to notes of the source that are not given here.
Experiments:
Type in all cases: in vivo, male Wistar rats
[1] = Open field activity monitor, test for sedation in normal rats; details: for largest non-sedating dose: intraperitoneally, rats; for open field activity monitor, mean: male, Wistar, rat, in vivo, ip, 20 min
Method: (§1) Experiments were performed on male Wistar rats (wt 150-220g). Two series of experiments were performed in an observer blinded fashion with saline (negative) controls and GABAPentin (positive) controls. The investigations were in two stages: • 1. a range of doses of aprepitant (an example of a NK antagonist) given alone and in combination with flupirtine (an example of an inhibitor of neuronal excitation) were tested for sedating effects using the open field activity monitor.
Individual rats (several rats per treatment group) were placed in an open field activity monitor in which the movement of the rat could be monitored remotely by the frequency and number of interruption of infrared beams directed across the box in a grid. The activity in the monitor was measured for periods of 20 minutes in each rat. This was performed in groups of rats that received (1) control injection of saline, (2) GABAPentin 50 mg/kg as the maximum dose of that drug found previously not to be sedating (drug positive control) administered intraperitoneally, or (3) after pharmacological interventions that involve the administration of aprepitant and flupirtine given at a range of doses alone and in combination. If a rat was sedated by a drug or drug combination, the movements recorded were less. Since rats become habituated to the open field monitor, only one experiment was performed on each rat with this test.
These were the upper dose limits for subsequent experiments investigating the analgesic effects of these drugs administered together in combinations.

[2] = tested on: streptozotocin-induced diabetic neuropathy; assay: Reversal of heat hyperalgesia (paw flick, Hargreaves) in streptozotocin-induced diabetic neuropathy
Method: Male Wistar rats (wt 50-70 g) were given streptozotocin 150 mg/kg intraperitoneally. […] The largest non-sedating doses of GABAPentin (50 mg/kg intraperitoneally) and aprepitant (6.25 mg/kg intraperitoneally) were assessed for possible analgesic effect by measurement of the percentage reversal of the hyperalgesia caused by the diabetes assessed by withdrawal from noxious heat applied to the hind paw.
Experiments were performed in an observer blinded fashion with parallel saline treated controls:

[3] = tested on: streptozotocin-induced diabetic neuropathy; assay: Reversal of allodynia (von Frey hair) in streptozotocin-induced diabetic neuropathy; details: each drug alone at non sedating doses, intraperitoneal
Method: as §1
Rats were injected intraperitoneally with streptozotocin (150 mg per kg total dose—Sapphire Bioscience) dissolved in sodium chloride 0.9%. The induction of diabetes was confirmed one week after injection of streptozotocin and weekly thereafter by measurement of tail vein blood glucose levels with Ames Glucofilm test strips and Ames Glucometer blood glucose meter. Only animals with blood glucose levels greater than or equal to 15 mM and maintained continuously for 5 weeks were deemed to be diabetic. […] At the end of five weeks these rats were assessed with the methods of measuring hyperalgesia (paw flick—Hargreaves method) and allodynia (withdrawal from von Frey Hair stimulation at normally non noxious intensity) to elucidate the antinociceptive effects of flupirtine and aprepitant given intraperitoneally alone and in combination (with saline and GABApentin for comparison).

NCC1(CC(=O)O)CCCCC1 [GABAPentin]
largest non-sedating dose [1]: 50 mg/kg | reversal of hyperalgesia (statistics) ([2]; GABAPentin 50 mg/kg alone vs saline, P<0.01): statistically significant reversal of hyperalgesia | percentage reversal of the hyperalgesia, mean ([2]; GABAPentin 50 mg/kg intraperitoneally alone, noxious heat to hind paw, n=17): 27.67

C[C@@H](O[C@H]1OCCN(Cc2n[nH]c(=O)[nH]2)[C@H]1c1ccc(F)cc1)c1cc(C(F)(F)F)cc(C(F)(F)F)c1 [aprepitant]
largest non-sedating dose [1]: 6.25 mg/kg | open field activity monitor, mean ([1]; 6.25 mg/kg): 869.0 | open field activity monitor, mean ([1]; 12.5 mg/kg): 915.0* | open field activity monitor, mean ([1]; 25 mg/kg): 964.6* | open field activity monitor, mean ([1]; 50 mg/kg): 976.6* | open field activity monitor, mean ([1]; 100 mg/kg): 1058.2 | antinociception with respect to allodynia [3]: Neither drug at non sedating doses causes significant antinociception
